Reference: US9085576B2 (AMGEN INC., priority 2013, dated 2015)
Where two headings read alike, the source gives them in different places.

Key:
[1] = biological target: Beta Secretase enzyme (BACE) (Homo sapiens (Human), UniProt P56817); assay: In vitro enzymatic BACE FRET assay; type: biochemical
[2] = biological target: Cathepsin D (Cat D) (Homo sapiens (Human), UniProt P07339); assay: In vitro enzymatic Cathepsin D (Cat D) FRET assay; type: biochemical
[3] = read-out: BACE1 Enzyme assay IC50

Sequence of Cathepsin D (Cat D) (P07339 65-412, species assumed): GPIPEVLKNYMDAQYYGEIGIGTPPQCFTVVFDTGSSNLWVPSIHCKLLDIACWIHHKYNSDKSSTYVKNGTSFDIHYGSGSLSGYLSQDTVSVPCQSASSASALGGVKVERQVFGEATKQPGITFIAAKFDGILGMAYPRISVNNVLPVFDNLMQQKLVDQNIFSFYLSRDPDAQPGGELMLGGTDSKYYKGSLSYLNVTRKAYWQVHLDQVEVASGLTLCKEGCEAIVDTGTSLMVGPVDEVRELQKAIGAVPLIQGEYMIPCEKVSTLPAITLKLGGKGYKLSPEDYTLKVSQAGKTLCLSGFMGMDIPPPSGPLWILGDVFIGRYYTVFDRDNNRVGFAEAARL
Sequence of Beta Secretase enzyme (BACE) (P56817 46-501): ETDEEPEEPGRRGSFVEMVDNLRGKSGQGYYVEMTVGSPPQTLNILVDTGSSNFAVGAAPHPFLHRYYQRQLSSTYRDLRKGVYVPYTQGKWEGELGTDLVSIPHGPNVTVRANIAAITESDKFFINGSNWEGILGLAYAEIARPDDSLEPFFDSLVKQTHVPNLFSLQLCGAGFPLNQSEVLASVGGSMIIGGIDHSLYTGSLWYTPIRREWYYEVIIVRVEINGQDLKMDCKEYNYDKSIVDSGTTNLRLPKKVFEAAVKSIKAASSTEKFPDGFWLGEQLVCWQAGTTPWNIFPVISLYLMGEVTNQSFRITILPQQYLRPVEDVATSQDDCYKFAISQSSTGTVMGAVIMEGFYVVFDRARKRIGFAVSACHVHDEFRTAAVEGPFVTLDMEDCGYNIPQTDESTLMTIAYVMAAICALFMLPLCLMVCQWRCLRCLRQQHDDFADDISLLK

IC50 [1, 3]	IC50 ([2]; read-out: CatD IC50)	Molecule	IC50 [2]	IC50 [1]
0.265 µM	397 µM	NC1=N[C@@](c2cccc(NC(=O)c3ccc(Cl)cn3)c2)(C(F)F)[C@H]2C[C@H]2O1 [Example 265, N-(3-((1R,5S,6R)-3-amino-5-(difluoromethyl)-2-oxa-4-azabicyclo[4.1.0]hept-3-en-5-yl)phenyl)-5-chloropicolinamide]		
		NC1=N[C@@](c2cc(Nc3coc4cc(Cl)cnc34)ccc2F)(C(F)F)[C@H]2C[C@H]2O1 [Example 385, N-(3-((1R,5S,6R)-3-amino-5-(difluoromethyl)-2-oxa-4-azabicyclo[4.1.0]hept-3-en-5-yl)-4-fluorophenyl)-6-chlorofuro[3,2-b]pyridin-3-amine]	153 µM	0.253 µM
1.24 µM	196 µM	NC1=N[C@@](c2cc(-c3nc4ccc(Cl)cc4o3)ccc2F)(C(F)F)[C@H]2C[C@H]2O1 [Example 426, (1R,5S,6R)-5-(5-(6-chlorobenzo[d]oxazol-2-yl)-2-fluorophenyl)-5-(difluoromethyl)-2-oxa-4-azabicyclo[4.1.0]hept-3-en-3-amine]		
14.1 µM	> 400 µM	C[C@@]1(c2cc(NC(=O)c3ccc(Cl)cn3)cnc2F)N=C(N)O[C@H]2C[C@H]21 [Example 335, N-(5-((1S,5R,6S)-3-amino-5-methyl-2-oxa-4-azabicyclo[4.1.0]hept-3-en-5-yl)-6-fluoropyridin-3-yl)-5-chloropicolinamide]		
> 40 µM	56.6 µM	COc1cnc2c(Nc3ccc(F)c([C@]4(C)N=C(N)O[C@@H]5C[C@@H]54)c3)nccc2c1 [Example 338, (1R,5R,6R)-5-(2-fluoro-5-((3-methoxy-1,7-naphthyridin-8-yl)amino)phenyl)-5-methyl-2-oxa-4-azabicyclo[4.1.0]hept-3-en-3-amine]		
0.138 µM	918 µM	NC1=N[C@@](CF)(c2cc(NC(=O)c3ccc(Cl)cn3)ccc2Cl)[C@@H]2CC2O1 (stereo partly drawn) [Example 276, N-(3-(((1R,S), (5S,R), (6R,S))-3-amino-5-(fluoromethyl)-2-oxa-4-azabicyclo[4.1.0]hept-3-en-5-yl)-4-chlorophenyl)-5-chloropicolinamide]		
14.2 µM	646 µM	Cc1cc(C#N)cnc1C(=O)Nc1cc(F)c(Cl)c([C@]2(CF)N=C(N)O[C@H]3C[C@H]32)c1 [Example 139, N-(3-((1 S,5R,6S)-3-amino-5-(fluoromethyl)-2-oxa-4-azabicyclo[4.1.0]hept-3-en-5-yl)-4-chloro-5-fluorophenyl)-5-cyano-3-methylpicolinamide]		
23.1 µM		N=C1N[C@](CF)(c2cc(-c3cncc(F)c3)c(CO)cc2F)[C@H]2CC2O1 (stereo partly drawn) [Example 433, (5-fluoro-4-([(1R,S),(5S,R),(6R,S)]-5-(fluoromethyl)-3-imino-2-oxa-4-azabicyclo[4.1.0]heptan-5-yl)-2-(5-fluoropyridin-3-yl)phenyl)methanol]		
4.69 µM	91.6 µM	CC#Cc1cncc(-c2ccc(F)c([C@@]3(CF)N=C(N)O[C@@H]4C[C@@H]43)c2)c1 [Example 431, (1(S,R),5(R,S),6(S,R))-5-(2-fluoro-5-(5-(prop-1-yn-1-yl)pyridin-3-yl)phenyl)-5-(fluoromethyl)-2-oxa-4-azabicyclo[4.1.0]hept-3-en-3-amine]		
0.396 µM	592 µM	NC1=N[C@](CF)(c2cccc(NC(=O)c3ccc(Cl)cn3)c2)[C@H]2C[C@H]2O1 (racemic) [Example 423, N-(3-(((1R,S),(5S,R),(6R,S))-3-amino-5-(fluoromethyl)-2-oxa-4-azabicyclo[4.1.0]hept-3-en-5-yl)phenyl)-5-chloropicolinamide]		
0.0448 µM	539 µM	Cc1cc(C#N)cnc1C(=O)Nc1cc(F)c(Cl)c([C@]2(CF)N=C(N)O[C@H]3C[C@H]32)c1 (racemic) [Example 137, N-(3-((1R/S,5S/R,6R/S)-3-amino-5-(fluoromethyl)-2-oxa-4-azabicyclo[4.1.0]hept-3-en-5-yl)-4-chloro-5-fluorophenyl)-5-cyano-3-methylpicolinamide]		
0.0021 µM	42.5 µM	C#CCOc1cnc(C(=O)Nc2cc(F)c(F)c([C@@]3(C(F)F)N=C(N)O[C@@H]4C[C@@H]43)c2)cn1 [Example 115, N-(3-((1R,5S,6R)-3-amino-5-(difluoromethyl)-2-oxa-4-azabicyclo[4.1.0]hept-3-en-5-yl)-4,5-difluorophenyl)-5-(prop-2-yn-1-yloxy)pyrazine-2-carboxamide]		
0.0039 µM	569 µM	CC#CCOc1cnc(C(=O)Nc2ccc(Cl)c([C@]3(C(F)F)N=C(N)O[C@H]4C[C@H]43)c2)cn1 (racemic) [Example 210, N-(3-([1(R,S),5(S,R),6(R,S)]-3-amino-5-(difluoromethyl)-2-oxa-4-azabicyclo[4.1.0]hept-3-en-5-yl)-4-chlorophenyl)-5-(but-2-yn-1-yloxy)pyrazine-2-carboxamide]		
0.613 µM	240 µM	NC1=N[C@](c2cc(-c3nc4ccc(Cl)cc4o3)ccc2F)(C(F)F)[C@@H]2C[C@@H]2O1 [Example 425, (1S,5R,6S)-5-(5-(6-chlorobenzo[d]oxazol-2-yl)-2-fluorophenyl)-5-(difluoromethyl)-2-oxa-4-azabicyclo[4.1.0]hept-3-en-3-amine]		
24.1 µM	> 400 µM	NC1=N[C@@](CF)(c2cc(NC(=O)c3ccc(Cl)cn3)ccc2Cl)[C@@H]2C[C@@H]2O1 [Example 271]		
8.11 µM	> 400 µM	COc1cnc2c(Nc3ccc(F)c([C@]4(C)N=C(N)O[C@H]5C[C@H]54)c3)nccc2c1 [Example 339]		
	462 µM	Cc1cc(OCC#CC(C)(C)O)cnc1C(=O)Nc1ccc(F)c(C2(C)N=C(N)O[C@H]3C[C@H]32)c1 (mixture of isomers) [Example 29, N-(3-([1(R,S),5(S,R),6(R,S)]-3-amino-5-methyl-2-oxa-4-azabicyclo[4.1.0]hept-3-en-5-yl)-4-fluorophenyl)-5-((4-hydroxy-4-methylpent-2-yn-1-yl)oxy)-3-methylpicolinamide]		
	> 400 µM	N#Cc1ccc(C(=O)Nc2ccc(F)c([C@]3(C(F)F)N=C(N)O[C@H]4C[C@H]43)c2)nc1 [Example 65, N-(3-((1S,5R,6S)-3-amino-5-(difluoromethyl)-2-oxa-4-azabicyclo[4.1.0]hept-3-en-5-yl)-4-fluorophenyl)-5-cyanopicolinamide]		
	4180 µM	COc1cnc(C(=O)Nc2cc(F)c(F)c([C@@]3(C(F)F)N=C(N)O[C@@H]4C[C@@H]43)c2)cn1 [Example 112, N-(3-((1R,5S,6R)-3-amino-5-(difluoromethyl)-2-oxa-4-azabicyclo[4.1.0]hept-3-en-5-yl)-4,5-difluorophenyl)-5-methoxypyrazine-2-carboxamide]		
	> 618 µM	N#Cc1ccc(C(=O)Nc2cc(F)c(F)c([C@@]3(C(F)F)N=C(N)O[C@@H]4C[C@@H]43)c2)nc1 [Example 113, N-(3-((1R,5S,6R)-3-amino-5-(difluoromethyl)-2-oxa-4-azabicyclo[4.1.0]hept-3-en-5-yl)-4,5-difluorophenyl)-5-cyanopicolinamide]		

Molecule	IC50 [1, 3]	IC50 ([2]; read-out: CatD IC50)	IC50 [2]	IC50 [1]
(R)-4-((3-((1R,5S,6R)-3-amino-5-(difluoromethyl)-2-oxa-4-azabicyclo[4.1.0]hept-3-en-5-yl)-4-fluorophenyl)amino)chroman-7-carbonitrile and (S)-4-((3-((1R,5S,6R)-3-amino-5-(difluoromethyl)-2-oxa-4-azabicyclo[4.1.0]hept-3-en-5-yl)-4-fluorophenyl)amino)chroman-7-carbonitrile [Example 383]	0.968 µM			
NC1=N[C@@](c2cc(N[C@H](c3ccc(Cl)cn3)C(F)(F)F)ccc2F)(C(F)F)[C@H]2C[C@H]2O1 (mixture of isomers) [Example 422, (1R,5S,6R)-5-(5-(((R)-1-(5-chloropyridin-2-yl)-2,2,2-trifluoroethyl)amino)-2-fluorophenyl)-5-(difluoromethyl)-2-oxa-4-azabicyclo[4.1.0]hept-3-en-3-amine and (1R,5S,6R)-5-(5-(((S)-1-(5-chloropyridin-2-yl)-2,2,2-trifluoroethyl)amino-2-fluorophenyl)-5-(difluoromethyl)-2-oxa-4-azabicyclo[4.1.0]hept-3-en-3-amine]	5.25 µM	68.2 µM		
NC1=N[C@@](c2cc(N[C@H]3CCc4cc(Br)cnc43)ccc2F)(C(F)F)[C@H]2C[C@H]2O1 (single isomer, unassigned) [Example 381, (1R,5S,6R)-5-(5-(((S)-3-bromo-6,7-dihydro-5H-cyclopenta[b]pyridin-7-yl)amino)-2-fluorophenyl)-5-(difluoromethyl)-2-oxa-4-azabicyclo[4.1.0]hept-3-en-3-amine or (1R,5S,6R)-5-(5-(((R)-3-bromo-6,7-dihydro-5H-cyclopenta[b]pyridin-7-yl)amino)-2-fluorophenyl)-5-(difluoromethyl)-2-oxa-4-azabicyclo[4.1.0]hept-3-en-3-amine]	3.45 µM	83.3 µM		
(R)-8-((3-((1R,5S,6R)-3-amino-5-(difluoromethyl)-2-oxa-4-azabicyclo[4.1.0]hept-3-en-5-yl)-4-fluorophenyl)amino)-5,6,7,8-tetrahydroquinoline-3-carbonitrile and (S)-8-((3-((1R,5S,6R)-3-amino-5-(difluoromethyl)-2-oxa-4-azabicyclo[4.1.0]hept-3-en-5-yl)-4-fluorophenyl)amino)-5,6,7,8-tetrahydroquinoline-3-carbonitrile [Example 403]	2.85 µM	469 µM		
Cc1cc(NC(=O)c2ccc(Cl)cn2)cc([C@@]2(C(F)F)N=C(N)O[C@@H]3C[C@@H]32)c1F (racemic) [Example 30, N-(3-([(1R,S),(5S,R),(6R,S)]-3-amino-5-(difluoromethyl)-2-oxa-4-azabicyclo[4.1.0]hept-3-en-5-yl)-4-fluoro-5-methylphenyl)-5-chloropicolinamide]		469 µM		
COC(=O)c1ccc(C(=O)Nc2cc(F)c(F)c([C@]3(C(F)F)N=C(N)O[C@H]4C[C@H]43)c2)nc1 [Example 436, methyl 6-((3-((1S,5R,6S)-3-amino-5-(difluoromethyl)-2-oxa-4-azabicyclo[4.1.0]hept-3-en-5-yl)-4,5-difluorophenyl)carbamoyl)nicotinate]		343 µM		
